Assay results as given in ChEMBL document CHEMBL3885881, “DrugMatrix”.

Species on record: Rattus norvegicus
Test: DrugMatrix - Regimen: Daily Repeat
Type: toxicity, organism-based, Sprague-Dawley
Parameters: regimen Daily Repeat, gender Male, age 6-8 weeks
Conditions: in vivo, iv, vehicle 100 % SALINE; for URIC ACID / ALANINE AMINOTRANSFERASE / ALBUMIN / ALKALINE PHOSPHATASE / ASPARTATE AMINOTRANSFERASE / BLOOD UREA NITROGEN / CARBON DIOXIDE / CHLORIDE / CHOLESTEROL / CREATINE PHOSPHOKINASE / CREATININE / GLUCOSE / LIPASE / PHOSPHORUS / POTASSIUM / SODIUM / TOTAL BILIRUBIN / TOTAL PROTEIN: tissue Plasma; for ABSOLUTE BASOPHIL / ABSOLUTE EOSINOPHIL / ABSOLUTE LYMPHOCYTE / ABSOLUTE MONOCYTE / ABSOLUTE SEGMENTED NEUTROPHIL / BASOPHIL / EOSINOPHIL / ERYTHROCYTE COUNT / HEMATOCRIT / HEMOGLOBIN / LYMPHOCYTE / MEAN CORPUSCULAR HEMOGLOBIN / MEAN CORPUSCULAR HEMOGLOBIN CONCENTRATION / MONOCYTE / NEUTROPHIL / NUCLEATED RED BLOOD CELLS / PLATELET COUNT: tissue Blood
[1] = 5 mg/kg, 120 h, dose level High, time 5 day
[2] = […], 72 h, dose 1.5 mg/Kg, dose level Low, time 3 day
[3] = […], 120 h, dose 1.5 mg/Kg, dose level Low, time 5 day

SMILES: CCc1c2c(nc3ccc(OC(=O)N4CCC(N5CCCCC5)CC4)cc13)-c1cc3c(c(=O)n1C2)COC(=O)[C@]3(O)CC [IRINOTECAN]
- URIC ACID (5 mg/kg, 72 h, dose level High, time 3 day): 1.77 mg/dL
- ABSOLUTE BASOPHIL [1]: 0 CELLS/uL
- ABSOLUTE EOSINOPHIL [1]: 0 CELLS/uL
- ABSOLUTE LYMPHOCYTE [1]: 10356 CELLS/uL
- ABSOLUTE MONOCYTE [1]: 74 CELLS/uL
- ABSOLUTE SEGMENTED NEUTROPHIL [1]: 470 CELLS/uL
- BASOPHIL [1]: 0%
- EOSINOPHIL [1]: 0%
- ERYTHROCYTE COUNT [1]: 6.32 x10E6/uL
- HEMATOCRIT [1]: 37.73%
- HEMOGLOBIN [1]: 15.1 G/DL
- LYMPHOCYTE [1]: 95%
- MEAN CORPUSCULAR HEMOGLOBIN [1]: 23.93 pg
- MEAN CORPUSCULAR HEMOGLOBIN CONCENTRATION [1]: 40.07 G/DL
- MONOCYTE [1]: 0.67%
- NEUTROPHIL [1]: 4.33%
- NUCLEATED RED BLOOD CELLS [1]: 0 /100WBC
- PLATELET COUNT [1]: 1232.33 x10E3/uL
- ALANINE AMINOTRANSFERASE [1]: 38 u/L
- ALBUMIN [1]: 4.37 G/DL
- ALKALINE PHOSPHATASE [1]: 299.33 u/L
- ASPARTATE AMINOTRANSFERASE [1]: 100.33 u/L
- BLOOD UREA NITROGEN [1]: 21.33 mg/dL
- CARBON DIOXIDE [1]: 22.67 mmol/L
- CHLORIDE [1]: 100 MEQ/L
- CHOLESTEROL [1]: 65 mg/dL
- CREATINE PHOSPHOKINASE [1]: 991 u/L
- CREATININE [1]: 0.24 mg/dL
- GLUCOSE [1]: 171.67 mg/dL
- LIPASE [1]: 9.33 u/L
- PHOSPHORUS [1]: 12.93 mg/dL
- POTASSIUM [1]: 6.75 MEQ/L
- SODIUM [1]: 142.97 MEQ/L
- TOTAL BILIRUBIN [1]: 0.13 mg/dL
- TOTAL PROTEIN [1]: 6.67 G/DL
- URIC ACID [1]: 2.8 mg/dL
- ABSOLUTE BASOPHIL [2]: 0 CELLS/uL
- ABSOLUTE EOSINOPHIL [2]: 215 CELLS/uL
- ABSOLUTE LYMPHOCYTE [2]: 8779 CELLS/uL
- ABSOLUTE MONOCYTE [2]: 139.33 CELLS/uL
- ABSOLUTE SEGMENTED NEUTROPHIL [2]: 933.33 CELLS/uL
- BASOPHIL [2]: 0%
- EOSINOPHIL [2]: 2%
- ERYTHROCYTE COUNT [2]: 5.76 x10E6/uL
- HEMATOCRIT [2]: 36.73%
- HEMOGLOBIN [2]: 14.23 G/DL
- LYMPHOCYTE [2]: 87.33%
- MEAN CORPUSCULAR HEMOGLOBIN [2]: 24.73 pg
- MEAN CORPUSCULAR HEMOGLOBIN CONCENTRATION [2]: 38.77 G/DL
- MONOCYTE [2]: 1.33%
- NEUTROPHIL [2]: 9.33%
- NUCLEATED RED BLOOD CELLS [2]: 0 /100WBC
- PLATELET COUNT [2]: 1185.67 x10E3/uL
- ALANINE AMINOTRANSFERASE [2]: 45.33 u/L
- ALBUMIN [2]: 4.23 G/DL
- ALKALINE PHOSPHATASE [2]: 367.67 u/L
- ASPARTATE AMINOTRANSFERASE [2]: 79.33 u/L
- BLOOD UREA NITROGEN [2]: 14.67 mg/dL
- CARBON DIOXIDE [2]: 27 mmol/L
- CHLORIDE [2]: 99 MEQ/L
- CHOLESTEROL [2]: 76.33 mg/dL
- CREATINE PHOSPHOKINASE [2]: 268.33 u/L
- CREATININE [2]: 0.18 mg/dL
- GLUCOSE [2]: 157 mg/dL
- LIPASE [2]: 9.67 u/L
- PHOSPHORUS [2]: 15.07 mg/dL
- POTASSIUM [2]: 6.67 MEQ/L
- SODIUM [2]: 143.87 MEQ/L
- TOTAL BILIRUBIN [2]: 0.17 mg/dL
- URIC ACID [2]: 1.7 mg/dL
- ABSOLUTE BASOPHIL [3]: 0 CELLS/uL
- ABSOLUTE EOSINOPHIL [3]: 58.33 CELLS/uL
- ABSOLUTE LYMPHOCYTE [3]: 15491.67 CELLS/uL
- ABSOLUTE MONOCYTE [3]: 116.67 CELLS/uL
- ABSOLUTE SEGMENTED NEUTROPHIL [3]: 2000 CELLS/uL
- BASOPHIL [3]: 0%
- EOSINOPHIL [3]: 0.33%
- HEMATOCRIT [3]: 36.13%
- HEMOGLOBIN [3]: 14.3 G/DL
- LYMPHOCYTE [3]: 87.67%
- MEAN CORPUSCULAR HEMOGLOBIN [3]: 24 pg
- MEAN CORPUSCULAR HEMOGLOBIN CONCENTRATION [3]: 39.57 G/DL
- MONOCYTE [3]: 0.67%
- NEUTROPHIL [3]: 11.33%
- NUCLEATED RED BLOOD CELLS [3]: 0 /100WBC
- PLATELET COUNT [3]: 1288 x10E3/uL
- ALANINE AMINOTRANSFERASE [3]: 54 u/L
- ALBUMIN [3]: 4.03 G/DL
- ALKALINE PHOSPHATASE [3]: 415.33 u/L
- ASPARTATE AMINOTRANSFERASE [3]: 101 u/L
- BLOOD UREA NITROGEN [3]: 15.67 mg/dL
- CARBON DIOXIDE [3]: 26 mmol/L
- CHLORIDE [3]: 101.33 MEQ/L
- CHOLESTEROL [3]: 68.67 mg/dL
- CREATINE PHOSPHOKINASE [3]: 578.67 u/L
- CREATININE [3]: 0.21 mg/dL
- GLUCOSE [3]: 151 mg/dL
- LIPASE [3]: 9.67 u/L
- PHOSPHORUS [3]: 13.47 mg/dL
- POTASSIUM [3]: 6.54 MEQ/L
- SODIUM [3]: 146.17 MEQ/L
- TOTAL BILIRUBIN [3]: 0.13 mg/dL
- TOTAL PROTEIN [3]: 5.93 G/DL
- URIC ACID [3]: 1.8 mg/dL
